Key:
[1] = tested on: BBB spheroid surface barrier; assay: Co-incubation with high molecular weight dextran (integrity of spheroid surface barrier); conditions: drug 10 μM with FITC-dextran 70 kDa 10 μg ml^−1, 24 h; 88 μm depth; nspheroid=3–6
Description: Multicellular BBB spheroids were formed through co-culturing astrocytes, HBVP and either HBMEC or hCMEC/D3 as described earlier for 48 h. Spheroids were incubated with increasing concentration of VEGF-A (between 5 and 100 ng ml^−1) and 10 μg ml^−1 of TRITC-Dextran (155 kDa; Sigma-Aldrich) or FITC-Dextran (70 kDa; Sigma-Aldrich) in the appropriate working medium for 24 h at 37 °C with 5% CO2. Spheroids were washed 3 times with PBS (5 min each), transferred into a Nunc Lab-Tek II thin-glass 8-well chambered coverglass (Thermo Scientific) and imaged under a confocal microscope as described earlier. Quantification of spheroid permeability to fluorescent dextran was performed using ImageJ software (http://imagej.net/Fiji). The mean fluorescence intensity of the core of each spheroid at 88 μm depth was quantified and plotted using GraphPad Prism (version 7.0 software).
To examine if angiopep-2 affects the overall permeability of the spheroid surface barrier, spheroids were co-incubated with 10 μM of TAMRA-angiopep (or TAMRA-scramble) and FITC-dextran (70 kDa; 10 μg ml^−1) as described earlier for 3 h at 37 °C on a rotator. […] The mean TAMRA and FITC fluorescence intensity of the core of each spheroid at 88 μm depth was quantified using ImageJ software and plotted using GraphPad Prism.

[2] = tested on: BBB spheroids (astrocytes, HBVP and hCMEC/D3 cells); assay: Evaluation of small molecule transport into BBB spheroids using MALDI-MSI; format: in vitro ADME, human; conditions: 10 μM, 24 h, 37 °C; 12 μm sections; 30 μm pixel step; nspheroid=150, ntissue=2
Description: BBB spheroids were established (using astrocytes, HBVP and hCMEC/D3 cells) for 48 h as described earlier. Approximately 150 spheroids per group were pooled into a 1.5 ml microcentrifuge tube in 1 ml of hCMEC/D3 working media. BKM120 or Dabrafenib was added into each tube at a final concentration of 10 μM and incubated for 24 h at 37 °C under constant rotation. Spheroids were washed 5 × with wash buffer (150 mM ammonium acetate in HPLC grade water, pH 7), and then transferred into an UltraFlux 0.2 ml PCR tube (BioExpress) in 200 μl of wash buffer. The spheroids were then, pooled at the bottom of the tube, and snap-frozen in a dry ice/ethanol bath. The top of the frozen tube was mounted onto a cryostat holder, and the bottom of the tube containing the spheroids was sectioned into 12 μm slices using a Microm HM550 cryostat, with the chamber and the specimen holder chilled at −26 °C. Sectioned tissues embedded in the frozen wash buffer were thaw-mounted onto indium tin oxide (ITO) coated microscopic slides (Bruker Daltonics) for MALDI-MSI, and regular positively charged glass slides for haematoxylin and eosin (H/E) staining. The tissues were allowed to dry for at least 15 min in a dessicator. […]

[3] = cited from earlier work
Text: Because most drugs are non-fluorescent, we explored an alternative strategy to detect drugs within the BBB spheroids using matrix-assisted laser desorption/ionization mass spectrometry imaging (MALDI-MSI).

[4] = tested on: multicellular BBB spheroids (astrocytes, HBVP and hCMEC/D3); assay: Transport of fluorescently labelled peptides / CPP screen in multicellular BBB spheroids (hCMEC/D3), confocal microscopy; format: in vitro ADME, human
Description: Sterile 1% agarose (w/v) was prepared by adding […] of molecular biology grade agarose (Bio-rad) into 50 ml of PBS in a conical flask, and boiled in a microwave until completely dissolved. The melted agarose solution was transferred into a sterile tissue culture hood, and 50 μl of the solution was dispensed into each well of a 96-well plate while it was still hot using a multi-channel pipette, and allowed to cool/solidify (∼15 min). Primary human astrocytes, HBVP and HBMEC were released by trypsin/EDTA (Thermo Scientific) and resuspended in HBMEC working medium. The concentration of each cell type was determined using a haemocytometer. 1 × 10^3 of each cell type was seeded onto the agarose gel in each well of the 96-well plate in a 1:1:1 ratio (final volume=100 μl). Cells were placed in a humidified incubator at 37 °C with 5% CO2, and 95% natural air for 48–72 h to allow for the assembly of multicellular BBB spheroids. For spheroid formation using the immortalized hCMEC/D3 EC line: hCMEC/D3, astrocytes and HBVP were released by trypsin/EDTA and resuspended in hCMEC/D3 working medium. 1.5 × 10^3 of each cell type were seeded onto the agarose gel in each well of the 96-well plate in a 1:1:1 ratio, and spheroids were allowed to form as described above.
Angiopep-2 (or scramble) peptide labelled with a Cy5 was added into each tube at a final concentration of 5 and 10 μM, and incubated for 3 h at 37 °C on a rotator. Spheroids were washed with PBS, fixed with 3.7% formaldehyde and imaged using a confocal microscope as described in earlier sections. […] The same methodology was applied for angiopep-2/scramble peptide labelled with a TAMRA (tetramethylrhodamine) dye. To inhibit transcytosis, spheroids were incubated with each peptide (5 μM final concentration) in cold working medium (on ice) for 3 h. For cryo-sectioning, spheroids were embedded in optimum cutting temperature compound (Tissue-Tek, Sakura Finetek, Torrance, CA), frozen on dry ice and sliced into 10 μm sections. Spheroid sections were imaged under a Nikon epi-fluorescence inverted microscope. […]

[5] = Stability in hCMEC/D3 working media containing 2% human serum; format: in vitro ADME; conditions: Cy5.5-CPP 5 μM in hCMEC/D3 working media (2% human serum), 37 °C, LC-MS extracted ion current, (EICt3/EICt0) × 100
Description: Cy5.5-angiopep and Cy5.5-scramble. Angiopep and scramble peptides (50 μM) were incubated in hCMEC/D3 working media (containing 2% human serum) at 37 °C. […] The material was resuspended in 30 μl of 50:50 water:acetonitrile containing 0.1% TFA. […] The process was repeated (n=3) for each peptide.

[6] = tested on: brain parenchyma; assay: Ex vivo imaging of angiopep-2 in mouse brain after tail vein injection; conditions: Cy5.5-labelled peptide, 100 μg via tail vein, mice killed after 24 h
Description: Cy5.5-angiopep-2 or Cy5.5-scramble were diluted to a final concentration of 1 mg ml^−1 in 0.9% NaCl irrigation solution (Hospira, Lake Forest, IL). 100 μl of each peptide (total of 100 μg) was administered intravenously via tail vein injection. After 24 h, mice were killed (by CO2 asphyxiation), and immediately perfused with PBS followed by 10% formalin solution (Sigma-Aldrich). Brains were excised, and a coronal cut through the cerebral cortex was made with a sharp scalpel. The brains were washed several times with PBS containing 0.05% Tween-20, and incubated with DyLight 488 lectin (Vector Laboratories, Burlingame, CA) and Hoechst dye (Life Technologies; 1:1,000 dilution) for 1 h in PBS containing 0.02% Tween-20. This was followed by 3 washes (15 min each) with PBS containing 0.05% Tween-20. […] The brain tissue was imaged under a confocal microscope using a × 40 oil immersion objective. Z-slices captured through each spheroid (up to 100 μm-deep) were merged to generate a 2D maximum intensity projection using the ZEN blue imaging software (version 2012). Animal experiments described here are listed in the Brigham and Women’s Hospital Animal Experimentation Protocol 2016N000300 Translational Neurooncology Core (BWH IACUC approved 2016).

[7] = tested on: hCMEC/D3 / HBVP / astrocyte triple co-culture transwell model; format: in vitro ADME, human
Description: Both the apical and basal sides of 24-well transwell insert (0.4 μm pore size; Greiner Bio-One, Cat. # 662,641) were coated with rat-tail collagen (5 μg ml^−1 in PBS; Olaf Pharmaceuticals, Worcester, MA) overnight at 4 °C. Each transwell was inverted, and 5 × 10^4 HBVP cells (in 50 μl pericyte medium) were seeded on the basal side of the insert. The inserts were encased in an inverted plate, and allowed to adhere in a humidified incubator for 2 h at 37 °C with 5% CO2. Inserts were then removed and placed within a 24-well plate (upright) containing 300 μl pericyte medium, ensuring that the HBVP cells on the basal side of the insert was properly submerged in the medium. […] hCMEC/D3 cells were seeded on the apical side of the insert (in 200 μl volume) in EGM-2. In a separate 24-well plate, 5.0 × 10^4 astrocytes were seeded in AGM. […] TEER measurements of inserts without cells were subtracted from TEER values obtained from inserts containing cells (measured in ohms (Ω)). […]
After 84 h of co-culture in the transwell, TAMRA- angiopep-2 or TAMRA-scramble were added into the apical side of the insert at a final concentration of 10 μM. […] To assess the apical-to-basolateral permeability, the mean fluorescence intensity of the basal side of the transwell was quantified over time using ImageJ software and plotted using GraphPad Prism.

[8] = tested on: multicellular BBB spheroids (astrocytes, HBVP and HBMEC); assay: Transport of fluorescently labelled peptides into multicellular BBB spheroids (primary HBMEC), confocal microscopy; format: in vitro ADME, human
Description: Multicellular BBB spheroids (composed of astrocytes, HBVP and HBMEC (or hCMEC/D3)) were established for 48–72 h as described earlier, and pooled into a 1.5 ml Lobind microcentrifuge tube (Eppendorf) in 1.0 ml HBMEC (or hCMEC/D3) working media. […] Spheroids were washed with PBS, fixed with 3.7% formaldehyde and imaged using a confocal microscope as described in earlier sections. The mean fluorescence intensity inside each spheroid at 88 μm depth was quantified using ImageJ software and plotted using GraphPad Prism. […] To inhibit transcytosis, spheroids were incubated with each peptide (5 μM final concentration) in cold working medium (on ice) for 3 h. For cryo-sectioning, spheroids were embedded in optimum cutting temperature compound (Tissue-Tek, Sakura Finetek, Torrance, CA), frozen on dry ice and sliced into 10 μm sections. Spheroid sections were imaged under a Nikon epi-fluorescence inverted microscope.

CC(C)(C)c1nc(-c2cccc(NS(=O)(=O)c3c(F)cccc3F)c2F)c(-c2ccnc(N)n2)s1 [dabrafenib]
Effect on ability of BBB spheroids to restrict entry of high molecular weight dextran [1]: did not affect | Drug detected in sections of BBB spheroids by MALDI-MSI [2]: not detected | BBB penetrance [3]: limited BBB penetrance

VSALK [Bip(2), Cy5.5-labelled hydrophobic CPP from natural protein]
Influx rate at earlier time points (15 min–1 h) [4]: highest influx rate

LRRERQSRLRRERQSR [DPV15]
Influx rate at earlier time points (15 min–1 h) [4]: highest influx rate

VPALR [Bip(1), Cy5.5-labelled hydrophobic CPP from natural protein]
Influx rate at earlier time points (15 min–1 h) [4]: highest influx rate

Nc1cc(C(F)(F)F)c(-c2cc(N3CCOCC3)nc(N3CCOCC3)n2)cn1 [BKM120]
Effect on ability of BBB spheroids to restrict entry of high molecular weight dextran [1]: did not affect | Drug detected in sections of BBB spheroids by MALDI-MSI [2]: dramatic accumulation | BBB penetrance [3]: known to cross the BBB

RKKRRQRRR [HIV-1 Tat, established brain-penetrating standard]
product remaining after 3 h in working media [5]: 50%

angiopep-2
Accumulation in the brain parenchyma in vivo (fluorescence of brain cryosections) [6]: extravasation and accumulation | Apical-to-basolateral permeability in co-culture transwell compared to inserts with no ECs [7]: significantly lower permeability | Transwell permeability of angiopep-2 versus scrambled control [7]: unable to differentiate | Influx of TAMRA-labelled peptide on co-incubation with FITC-dextran ([8]; 10 μM peptide, FITC-dextran 70 kDa 10 μg ml^−1, 3 h, 37 °C, 88 μm depth, nspheroid=3–6, nexperiment=3, versus scrambled peptide): significantly higher influx | Peptide level in the core of fixed, cryosectioned spheroids (fluorescence microscopy) ([8]; 10 μm cryosections, epi-fluorescence): high level | Influx of Cy5-labelled peptide at 4 °C (transcytosis inhibited) versus 37 °C ([8]; spheroids with primary HBMECs, 10 μM, 3 h, 88 μm depth): significantly reduced | Influx of Cy5-labelled peptide into spheroid (mean Cy5 intensity at 88 μm depth) ([8]; spheroids with primary HBMECs, 5 and 10 μM, 3 h, 37 °C, confocal microscopy, compared with scrambled control, nspheroid=10, nexperiment=3): substantial influx
